Measurements published in US8895585B2, “Nicotinamide derivative or salt thereof” (FUJIFILM Corporation, priority 2010, dated 2014).

Legend:
[1] = target: T1, glutathione S-transferase (GST)-fused full-length human Syk protein (Homo sapiens, UniProt P43405); experiment: Syk enzyme assay; format: biochemical; details: Syk enzyme assay, Test Example 1; read-out: IC50 of Syk-inhibitory activity
T1 construct: (GST)-fused full-length human Syk protein; GST (glutathione S-transferase); purchased Carna Biosciences
Procedure, shortened: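 GST-tagged full-length human Syk (baculovirus) preincubated with compound 15 min at room temperature (pH 7.0, 10 mM MgCl2), then reacted 40 min with 0.4 μM biotinylated peptide substrate and 27 μM ATP (final). Phosphorylation read by HTRF (615/665 nm) after EDTA stop; IC50 reported.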

THP-1 cells = experiment: TNFα generation assay; format: cell-based, human; details: Homo sapiens, THP-1, THP-1 cells; Table 22; read-out: IC50 in TNFα generation assay
Protocol: THP-1 cells (2×10^5 cells/ml), which were human monocytoid cells, were cultured in the presence of 10 ng/ml IFN-γ (Roche) for 2 days, so that the cells were induced to differentiate into macrophage-like cells. The differentiation-induced THP-1 cells were recovered, and the cells (1×10^6 cell/ml) were then allowed to react with a predetermined concentration of test compound at room temperature for 30 minutes. On the other hand, 100 μl of human IgG (10 μg/ml, SIGMA-ALDRICH) diluted with PBS was added to a 96-well plate, and it was then incubated at room temperature overnight. Thereafter, the resultant was washed with PBS twice to produce a human IgG-coated plate. Subsequently, a cell solution that contained a compound was inoculated on the human IgG-coated plate (5×10^4 cells/well), and it was then cultured for 7 hours. Thereafter, the cultured solution was recovered, and the amount of TNFα secreted into the culture solution was then measured by the ELISA method (Roche/R & D Systems) or the AlphaLISA method (PerkinElmer).

SMILES | IC50 [1] [nM] | IC50 (THP-1 cells) [nM]
Cc1nc2ccc(Nc3nc(N[C@H](C)[C@H](C)N)c(F)cc3C(N)=O)cc2nc1C (racemic) [Example 006-185, 6-(((2R,3S)-3-aminobutan-2-yl)amino)-2-((2,3-dimethylquinoxalin-6-yl)amino)-5-fluoronicotinamide 6-(((2S,3R)-3-aminobutan-2-yl)amino)-2-((2,3-dimethylquinoxalin-6-yl)amino)-5-fluoronicotinamide] | 10 to 50 | 65 to 130
C[C@H](N)[C@@H](C)Nc1nc(Nc2cncc(-n3cccn3)c2)c(C(N)=O)cc1F (racemic) [Example 006-192, 2-((5-(1H-pyrazol-1-yl)pyridin-3-yl)amino)-6-(((2R,3S)-3-aminobutan-2-yl)amino)-5-fluoronicotinamide 2-((5-(1H-pyrazol-1-yl)pyridin-3-yl)amino)-6-(((2S,3R)-3-aminobutan-2-yl)amino)-5-fluoronicotinamide] | 10 to 50 | 65 to 130
Cc1cnc2cc(Nc3nc(N[C@H](C)[C@H](C)N)c(F)cc3C(N)=O)ccc2n1 (racemic) [Example 006-196, 6-(((2R,3S)-3-aminobutan-2-yl)amino)-5-fluoro-2-((2-methylquinoxalin-6-yl)amino)nicotinamide 6-(((2S,3R)-3-aminobutan-2-yl)amino)-5-fluoro-2-((2-methylquinoxalin-6-yl)amino)nicotinamide] | 10 to 50 | 65 to 130
NC(=O)c1cc(F)c(N[C@@H]2CCCC[C@@H]2N)nc1Nc1cncc(N2CCCCC2)c1 (relative stereo) [Example 004-050] | 10 to 50 | 130 to 200
NC(=O)c1cc(F)c(N[C@@H]2CCCC[C@@H]2N)nc1Nc1cncc(N2CCOCC2)c1 (relative stereo) [Example 004-051] | < 10 | 130 to 200
NC(=O)c1cc(F)c(N[C@@H]2CCCC[C@@H]2N)nc1Nc1cncc(-c2ccc[nH]2)c1 (relative stereo) [Example 004-053] | < 10 | 65 to 130
NC(=O)c1cc(F)c(N[C@@H]2CCCC[C@@H]2N)nc1Nc1cncc(-c2cccs2)c1 (relative stereo) [Example 004-054] | < 10 | 65 to 130
NC(=O)c1cc(F)c(N[C@@H]2CCCC[C@@H]2N)nc1Nc1cncc(C2CC2)c1 (relative stereo) [Example 004-055] | < 10 | 65 to 130
NC(=O)c1cc(F)c(N[C@@H]2CCCC[C@@H]2N)nc1Nc1cncc(-c2ccc3c(c2)OCCO3)c1 (relative stereo) [Example 004-056] | < 10 | 130 to 200
NC(=O)c1cc(F)c(N[C@@H]2CCCC[C@@H]2N)nc1Nc1cncc(-c2ccco2)c1 (relative stereo) [Example 004-058] | < 10 | 65 to 130
NC(=O)c1cc(F)c(N[C@@H]2CCCC[C@@H]2N)nc1Nc1cnc2c(N)cccc2c1 (relative stereo) [Example 004-059] | < 10 | < 65
NC(=O)c1cc(F)c(N[C@@H]2CCCC[C@@H]2N)nc1Nc1cnc2[nH]ccc2c1 (relative stereo) [Example 004-061] | < 10 | < 65
NC(=O)c1cc(F)c(N[C@@H]2CCCC[C@@H]2N)nc1Nc1cncc2[nH]ccc12 (relative stereo) [Example 004-062] | < 10 | < 65
NC(=O)Nc1cccc2cc(Nc3nc(N[C@@H]4CCCC[C@@H]4N)c(F)cc3C(N)=O)cnc12 (relative stereo) [Example 004-064] | 100 to 1000 | < 65
COc1cc(Nc2nc(N[C@@H]3CCCC[C@@H]3N)c(F)cc2C(N)=O)c2cc[nH]c2n1 (relative stereo) [Example 004-065, 6-(cis-2-aminocyclohexylamino)-5-fluoro-2-((6-methoxy-1H-pyrrolo[2,3-b]pyridin-4-yl)-amino)nicotinamide] | < 10 | 65 to 130

Results, then the compound that gave them:

IC50 [1] [nM] | IC50 (THP-1 cells) [nM] | SMILES
< 10 | 65 to 130 | COc1cc(Nc2nc(N[C@H](C)[C@H](C)N)c(F)cc2C(N)=O)cc(OC)n1 (racemic) [Example 006-112, 6-(((2R,3S)-3-aminobutan-2-yl)amino)-2-((2,6-dimethoxypyridin-4-yl)amino)-5-fluoronicotinamide 6-(((2S,3R)-3-aminobutan-2-yl)amino)-2-((2,6-dimethoxypyridin-4-yl)amino)-5-fluoronicotinamide]
< 10 | 130 to 200 | C[C@H](N)[C@@H](C)Nc1nc(Nc2cccc(-n3ccnn3)c2)c(C(N)=O)cc1F (racemic) [Example 006-121, 2-((3-(1H-1,2,3-triazol-1-yl)phenyl)amino)-6-(((2R,3S)-3-aminobutan-2-yl)amino)-5-fluoronicotinamide 2-((3-(1H-1,2,3-triazol-1-yl)phenyl)amino)-6-(((2S,3R)-3-aminobutan-2-yl)amino)-5-fluoronicotinamide]
< 10 | < 65 | COc1ccc2cc(Nc3nc(N[C@H](C)[C@H](C)N)c(F)cc3C(N)=O)cnc2c1 (racemic) [Example 006-174, 6-(((2R,3S)-3-aminobutan-2-yl)amino)-5-fluoro-2-((7-methoxyquinolin-3-yl)amino)nicotinamide 6-(((2S,3R)-3-aminobutan-2-yl)amino)-5-fluoro-2-((7-methoxyquinolin-3-yl)amino)nicotinamide]
< 10 | 130 to 200 | C[C@H](N)[C@@H](C)Nc1nc(Nc2ccc3cccnc3c2)c(C(N)=O)cc1F (racemic) [Example 006-182, 6-(((2R,3S)-3-aminobutan-2-yl)amino)-5-fluoro-2-((quinolin-7-yl)amino)nicotinamide 6-(((2S,3R)-3-aminobutan-2-yl)amino)-5-fluoro-2-((quinolin-7-yl)amino)nicotinamide]
< 10 | 65 to 130 | CCn1ncc2cc(Nc3nc(N[C@H](C)[C@H](C)N)c(F)cc3C(N)=O)ccc21 (racemic) [Example 006-184, 6-(((2R,3S)-3-aminobutan-2-yl)amino)-2-((1-ethyl-1H-indazol-5-yl)amino)-5-fluoronicotinamide 6-(((2S,3R)-3-aminobutan-2-yl)amino)-2-((1-ethyl-1H-indazol-5-yl)amino)-5-fluoronicotinamide]
< 10 | 130 to 200 | CCCOc1cc(Nc2nc(N[C@H](C)[C@H](C)N)c(F)cc2C(N)=O)ccn1 (racemic) [Example 006-187, 6-(((2R,3S)-3-aminobutan-2-yl)amino)-5-fluoro-2-((2-propoxypyridin-4-yl)amino)nicotinamide 6-(((2S,3R)-3-aminobutan-2-yl)amino)-5-fluoro-2-((2-propoxypyridin-4-yl)amino)nicotinamide]
< 10 | 65 to 130 | C[C@H](N)[C@@H](C)Nc1nc(Nc2ccc3scnc3c2)c(C(N)=O)cc1F (racemic) [Example 006-188, 6-(((2R,3S)-3-aminobutan-2-yl)amino)-2-(benzo[d]thiazol-5-ylamino)-5-fluoronicotinamide 6-(((2S,3R)-3-aminobutan-2-yl)amino)-2-(benzo[d]thiazol-5-ylamino)-5-fluoronicotinamide]
< 10 | < 65 | C[C@H](N)[C@@H](C)Nc1nc(Nc2cncc(C3CC3)c2)c(C(N)=O)cc1F (racemic) [Example 006-193, 6-(((2R,3S)-3-aminobutan-2-yl)amino)-2-((5-cyclopropylpyridin-3-yl)amino)-5-fluoronicotinamide 6-(((2S,3R)-3-aminobutan-2-yl)amino)-2-((5-cyclopropylpyridin-3-yl)amino)-5-fluoronicotinamide]
< 10 | < 65 | C[C@H](N)[C@@H](C)Nc1nc(Nc2cncc(-c3ccccc3)c2)c(C(N)=O)cc1F (racemic) [Example 006-195, 6-(((2R,3S)-3-aminobutan-2-yl)amino)-5-fluoro-2-((5-phenylpyridin-3-yl)amino)nicotinamide 6-(((2S,3R)-3-aminobutan-2-yl)amino)-5-fluoro-2-((5-phenylpyridin-3-yl)amino)-nicotinamide]
< 10 | 130 to 200 | CCOc1cc(Nc2nc(N[C@H](C)[C@H](C)N)c(F)cc2C(N)=O)ccn1 (racemic) [Example 006-213, 6-(((2R,3S)-3-aminobutan-2-yl)amino)-2-((2-ethoxypyridin-4-yl)amino)-5-fluoronicotinamide 6-(((2S,3R)-3-aminobutan-2-yl)amino)-2-((2-ethoxypyridin-4-yl)amino)-5-fluoronicotinamide]
< 10 | < 65 | C[C@H](N)[C@@H](C)Nc1nc(Nc2ccc3ncccc3c2)c(C(N)=O)cc1F (racemic) [Example 39-1, 6-(((2R,3S)-3-aminobutan-2-yl)amino)-5-fluoro-2-((quinolin-6-yl)amino)nicotinamide 6-(((2S,3R)-3-aminobutan-2-yl)amino)-5-fluoro-2-((quinolin-6-yl)amino)nicotinamide]
< 10 | 130 to 200 | NC(=O)c1cc(F)c(N[C@@H]2CCCC[C@@H]2N)nc1Nc1cncc(N2CCCC2)c1 (relative stereo) [Example 004-049]
